Patent publication US20220000964A1, “Compositions and Methods for Regulating Homeostasis of Chondrocytes, Extracellular Matrix, Articular Cartilage, and Phenotype of Arthritis” (Unigen, Inc., priority 2020, published 2022)
Where two headings read alike, the source gives them in different places.

Assays:
Assay type in all cases: in vivo, rat
[1] = system: IL-6; assay: MIA-induced OA rats, serum IL-6; conditions: 10 mg/kg
Method: Treatment started a week before MIA injection. […] On the induction day, isoflurane (Lot #B66H15A, Piramal Enterprise Ltd. Andhra Pradesh, India) anesthetized rats were injected with 0.8 mg of MIA (Lot #A0352046, Acros Organics, New Jersey, USA) in 50 μL saline solution into the intra-articular pocket of left femorotibial (knee) joint using 26 G needle an hour after treatment. Normal control rats were injected with an equal volume of saline. […] Body weights were measured once a week to calculate the respective weekly dosage of each group. […] The fixed specimens were then decalcified with Calci-Clear Rapid for 1 and a half days and embedded in paraffin. […] The histological analysis was conducted by a certified Pathologist at Nationwide Histology.

[2] = system: Sprague Dawley rats; assay: Hot plate test, topical application, paw withdrawal latency; conditions: dose (%): Ibuprofen 5, Capsaicin 0.5, Diclofenac 1, others 5
From the text: Repeated application of anti-inflammatory compounds or extracts topically at the site of thermal contact (noxious stimulus) may cause desensitization of the peripheral afferent pain receptors to produce a delay in response time. A longer change in reaction time could be interpreted as an anti-nociceptive effect of the applied compound. To evaluate whether prepared plant extracts and compositions could provide anti-nociceptive activity, rats received orally-active anti-inflammatory extracts formulated in 2% Aloe vera gel at 5% concentration topically on their hind paws. The applied preparations on each paw were massaged at least 60 times in a circular motion into the skin until the applied content appeared visually absorbed. The procedure was repeated 3 times, every 30 minutes, before placing the animals on a preheated hot plate set to 53° C. The paw withdrawal latency was calculated as the time elapsed from the initial placement of the rat onto the hotplate to the withdrawal (or licking or shaking) of the hind paw in response to the thermal stimulus. Animals were immediately removed when this response was observed.
The anti-pain activity of medicinal plant extracts was tested on a hot plate set at 53° C. Test materials at 5% concentrations were topically applied at 20 μl/paw to the hind paws of both right and left paws of Sprague Dawley rats (n=10 per group). Applications of these extracts were carried out every 30 minutes for a total of 90 minutes. Within these 90 minutes, rats received a total of 60 μl/paw of the test article per rat. At 5% concentration, each rat received 3 mg/paw of the test articles. Due to the solubility characteristics of the compounds, two types of vehicles, V1=Dimethyl sulfoxide (DMSO)+propylene glycol (PG)+Aloe (2%), and V2=DMSO+OIL+PG, were used. Percent changes and P-values for statistical significance were determined using respective vehicles for each test material. The vehicle used for each material has been indicated in the parenthesis next to the test material. […] These increases in anti-pain activity were statistically significant. […] This percent change was statistically significant when compared to its respective vehicle.

[3] = system: MIA-induced OA rats; assay: MIA-induced OA rats, histopathology (modified Mankin); conditions: 10 mg/kg
Method: (§1) Treatment started a week before MIA injection. Animals were randomized into five groups of 10 rats per group as G1=normal, G2=vehicle (0.5% CMC-Na solution), G3=Diclofenac (10 mg/kg, Lot #W08B043, Ward Hill, Mass.), G4=AMK (100 mg/kg) and G5=AMK (300 mg/kg), were orally gavaged with respective treatment. On the induction day, isoflurane (Lot #B66H15A, Piramal Enterprise Ltd. Andhra Pradesh, India) anesthetized rats were injected with 0.8 mg of MIA (Lot #A0352046, Acros Organics, New Jersey, USA) in 50 μL saline solution into the intra-articular pocket of left femorotibial (knee) joint using 26 G needle an hour after treatment. Normal control rats were injected with an equal volume of saline. Paw withdrawal thresholds as a result of constant pressure applied to the affected joint as a measure of pain sensitivity were taken once a week using Randall-Salitto Anesthesiometer (IITC, USA) and treatment lasted for 6 weeks. Body weights were measured once a week to calculate the respective weekly dosage of each group. Urine was collected at the end of study using metabolic cages. Blood samples were collected to isolate serum for biomarker analysis. At necropsy, animals were asphyxiated with CO2 and the femorotibial joint was carefully dissected out, fixed in 10% buffered formalin and sent to Nationwide Histology (Veradale, Wash., USA) for further histopathology analysis. The fixed specimens were then decalcified with Calci-Clear Rapid for 1 and a half days and embedded in paraffin. Standardized […] serial sections were obtained at the medial and lateral mid-condylar level in the sagittal plane and were stained with hematoxylin and eosin (HE) and Safranin O-fast green to enable evaluation of proteoglycan content. A modified Mankin system (Mankin et al., 1981) was used to score structural and cellular alterations of articular components as indications of disease progression and/or treatment efficacy. The histological analysis was conducted by a certified Pathologist at Nationwide Histology.

[4] = system: MIA-induced OA rats; assay: MIA-induced OA rats, pain sensitivity (paw withdrawal threshold, Randall-Salitto); conditions: 10 mg/kg oral; for inhibition at 10 mg/kg: Rattus norvegicus, po, read-out: Knee compression sensitivity, percent inhibition against vehicle treated MIA rats
From the text: The MIA-induced OA disease model in rats is a standardized model most frequently used to mimic human OA (Lee et al., 2014). The model involves inoculation of MIA into a femorotibial joint pocket that induces pain responses in the ipsilateral limb accompanied by progressive cartilage degradation. Intra-articular injection of MIA disrupts chondrocyte glycolysis by inhibiting […] and results in chondrocyte death, neovascularization, subchondral bone necrosis and collapse, as well as inflammation (Guzman et al., 2003). These phenotypic characteristics make the model very attractive to evaluate compounds for their anti-inflammatory, analgesic and/or potential disease-modifying activities as it shares similar disease pathology to the human OA. As a result, we selected this validated in vivo model to investigate the effect of AMK in mitigating pain sensitivity, regulating the phenotype of joint tissue and maintaining articular structural integrity after being administered orally for 6 weeks.
as §1

## O=C(O)Cc1ccccc1Nc1c(Cl)cccc1Cl [Diclofenac]
[1]
  IL-6: 114.2 ± 5.5 pg/mL
[2]; hot plate 53° C., topical, vehicle V1 (DMSO+PG+Aloe 2%), in s (unit assumed)
  Paw withdrawal threshold (latency) Mean ± SD: 6.93 ± 1.50
[2]; vs vehicle V1, negative = increased paw withdrawal latency
  % Change: 2.8%
[3]; MIA rats
  inhibition in catabolic inflammation and infiltration of inflammatory cells: 42.8%
  reduction in matrix GAG loss: 34.6%
  reduction of overall structural abnormalities: 41.1%
[3]; modified Mankin score
  Bone Erosion (Mean ± SE): 3.08 ± 0.50
  Cartilage destruction (Mean ± SE): 4.00 ± 0.76
  GAG Loss (Mean ± SE): 3.08 ± 0.57
  Inflammation (Mean ± SE): 1.31 ± 0.22
[3]; vs MIA+ vehicle
  Bone Erosion, reduction (value in parenthesis): (40.8) %
  Cartilage destruction, reduction (value in parenthesis): (41.10%
  GAG Loss, reduction (value in parenthesis): (34.6) %
  Inflammation, reduction (value in parenthesis): (42.8) %
[4]; Wk-0
  inhibition at 10 mg/kg: 0.3%
  Knee compression sensitivity (Mean ± SD): 243.1 ± 2.4
[4]; Wk-1
  inhibition at 10 mg/kg: 19.7%
  Knee compression sensitivity (Mean ± SD): 190.9 ± 2.3
[4]; Wk-2
  inhibition at 10 mg/kg: 24.1%
  Knee compression sensitivity (Mean ± SD): 190.5 ± 2.6
[4]; Wk-3
  inhibition at 10 mg/kg: 28.3%
  Knee compression sensitivity (Mean ± SD): 183.8 ± 2.3
[4]; Wk-4
  inhibition at 10 mg/kg: 30.8%
  Knee compression sensitivity (Mean ± SD): 183.3 ± 1.7
[4]; wk-5
  inhibition at 10 mg/kg: 31.1%
  Knee compression sensitivity (Mean ± SD): 182.0 ± 1.1
